Numbers after ± are expanded uncertainties.
Conditions: Liquid, Closed cell (Static) method

Structure (SMILES)	vapor or sublimation pressure (258.15 K) [kPa]	vapor or sublimation pressure (268.15 K) [kPa]	vapor or sublimation pressure (278.15 K) [kPa]	vapor or sublimation pressure (288.15 K) [kPa]
CC(F)F [1,1-difluoroethane]	148.6 ± 1	219.4 ± 1.1	314.1 ± 1.1	437.8 ± 1.2
F/C=C/C(F)(F)F [trans-1,3,3,3-tetrafluoropropene]	120.2 ± 1	179.3 ± 1	259.2 ± 1.1	364.2 ± 1.1
